From ChEMBL document CHEMBL1201862, “PubChem BioAssay data set” (2004) come the findings set out here.

Broadly, the AC50 is the concentration at which the activity in the assay is half-maximal.

SMILES strings stand for the structures. Activity calls are given as the source filed them.

Experiment [1] deals with Intestinal-type alkaline phosphatase (Mus musculus, UniProt P24822). The experiment can be described thus: PubChem AID 488874. Type of experiment: functional.
Experiment [2] addresses T1, Alkaline phosphatase, tissue-nonspecific isozyme (Homo sapiens, UniProt P05186).
T1 sequence (P05186 whole entry): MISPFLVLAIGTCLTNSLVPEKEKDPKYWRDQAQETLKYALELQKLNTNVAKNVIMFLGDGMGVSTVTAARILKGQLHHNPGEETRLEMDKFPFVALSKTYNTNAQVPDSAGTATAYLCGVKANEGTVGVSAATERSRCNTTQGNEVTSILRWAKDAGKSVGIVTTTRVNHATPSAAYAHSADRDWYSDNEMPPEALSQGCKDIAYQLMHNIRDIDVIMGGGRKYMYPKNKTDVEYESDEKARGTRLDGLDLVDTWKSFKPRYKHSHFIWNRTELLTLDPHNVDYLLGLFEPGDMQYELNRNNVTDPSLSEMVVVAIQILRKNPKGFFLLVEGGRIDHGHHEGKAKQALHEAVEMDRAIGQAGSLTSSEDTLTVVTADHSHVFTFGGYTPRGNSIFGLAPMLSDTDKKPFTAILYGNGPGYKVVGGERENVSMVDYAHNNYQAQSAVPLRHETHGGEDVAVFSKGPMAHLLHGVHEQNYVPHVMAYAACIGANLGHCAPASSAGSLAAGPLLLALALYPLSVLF
The experiment is described as follows: activation of tissue-nonspecific alkaline phosphatase – biochemical, TNAP isozyme, human IAP uHTS hits, selectivity assay for human IAP activator project, dose response (AID 488886).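 Note: potency of compounds raising TNAP activity as a selectivity check on IAP activators.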 Format: functional.

The target in experiment [3] is T2, Intestinal-type alkaline phosphatase (Homo sapiens, UniProt P09923). The experiment can be described thus: human intestinal alkaline phosphatase activators, dose response, biochemical, luminescence, uHTS hits (AID 463120). Type of experiment: functional.
T2 sequence (P09923 whole entry): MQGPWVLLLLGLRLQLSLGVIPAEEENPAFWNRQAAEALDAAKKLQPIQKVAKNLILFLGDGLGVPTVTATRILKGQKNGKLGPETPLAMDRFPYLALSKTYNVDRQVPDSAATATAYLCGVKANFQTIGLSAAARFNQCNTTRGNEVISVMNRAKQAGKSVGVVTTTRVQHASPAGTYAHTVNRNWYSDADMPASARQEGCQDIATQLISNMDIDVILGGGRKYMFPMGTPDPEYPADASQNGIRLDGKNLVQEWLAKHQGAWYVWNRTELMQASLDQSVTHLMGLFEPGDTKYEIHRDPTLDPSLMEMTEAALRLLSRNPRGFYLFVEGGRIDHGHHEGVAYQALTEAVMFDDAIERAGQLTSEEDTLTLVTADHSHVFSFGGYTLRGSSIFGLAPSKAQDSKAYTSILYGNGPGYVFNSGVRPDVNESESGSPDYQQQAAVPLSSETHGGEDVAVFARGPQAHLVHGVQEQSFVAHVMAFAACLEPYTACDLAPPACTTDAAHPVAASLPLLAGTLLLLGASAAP
In experiment [4] the target is T2, Intestinal-type alkaline phosphatase. The experiment is described as follows: activation of human intestinal alkaline phosphatase – biochemical, luminescent, uHTS hits, set 2, dose response (AID 488817).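 Note: potency of activators that raise enzyme activity.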 Format: functional.
For experiment [5], the target named is Nucleotide-binding oligomerization domain-containing protein 2 (Homo sapiens, UniProt Q9HC29). The experiment can be described thus: inhibition of NOD2-driven NF-kB reporter – cell-based, luminescence, uHTS, HEK293 (AID 1566). Format: functional.
Sequence of Nucleotide-binding oligomerization domain-containing protein 2 (Q9HC29 whole entry, the tested form may be a part): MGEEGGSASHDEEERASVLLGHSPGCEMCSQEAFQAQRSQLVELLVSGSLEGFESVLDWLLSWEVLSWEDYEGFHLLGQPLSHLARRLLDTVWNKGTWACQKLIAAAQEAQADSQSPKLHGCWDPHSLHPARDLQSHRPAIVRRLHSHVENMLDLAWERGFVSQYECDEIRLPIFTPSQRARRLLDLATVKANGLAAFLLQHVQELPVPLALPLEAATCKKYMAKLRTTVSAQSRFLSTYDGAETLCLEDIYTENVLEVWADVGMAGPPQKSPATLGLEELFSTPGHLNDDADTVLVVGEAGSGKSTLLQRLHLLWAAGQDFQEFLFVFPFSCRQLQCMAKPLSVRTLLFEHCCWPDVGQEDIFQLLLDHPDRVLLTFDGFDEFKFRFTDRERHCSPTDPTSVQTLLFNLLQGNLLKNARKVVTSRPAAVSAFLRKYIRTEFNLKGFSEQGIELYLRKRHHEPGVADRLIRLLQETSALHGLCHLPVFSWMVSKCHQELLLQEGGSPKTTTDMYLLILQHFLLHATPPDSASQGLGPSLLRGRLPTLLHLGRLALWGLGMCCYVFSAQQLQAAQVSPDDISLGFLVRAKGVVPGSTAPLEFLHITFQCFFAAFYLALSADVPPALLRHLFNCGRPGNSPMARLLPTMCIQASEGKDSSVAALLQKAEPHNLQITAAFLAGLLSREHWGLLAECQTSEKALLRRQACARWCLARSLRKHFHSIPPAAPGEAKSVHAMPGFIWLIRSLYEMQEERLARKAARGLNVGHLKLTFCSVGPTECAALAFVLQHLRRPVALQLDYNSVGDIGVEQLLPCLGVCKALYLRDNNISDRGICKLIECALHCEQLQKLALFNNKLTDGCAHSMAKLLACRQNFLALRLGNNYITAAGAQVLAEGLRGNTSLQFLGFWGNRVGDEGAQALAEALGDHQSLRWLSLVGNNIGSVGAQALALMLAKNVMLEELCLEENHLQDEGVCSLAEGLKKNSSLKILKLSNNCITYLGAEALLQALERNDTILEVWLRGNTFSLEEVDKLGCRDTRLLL
The target of experiment [6] is Nucleotide-binding oligomerization domain-containing protein 1 (Homo sapiens, UniProt Q9Y239). The experiment is described as follows: blockers of NOD1 pathway activity – revised, SAR follow-up (AID 2333). Type of experiment: functional.
Sequence of Nucleotide-binding oligomerization domain-containing protein 1 (Q9Y239 whole entry, the tested form may be a part): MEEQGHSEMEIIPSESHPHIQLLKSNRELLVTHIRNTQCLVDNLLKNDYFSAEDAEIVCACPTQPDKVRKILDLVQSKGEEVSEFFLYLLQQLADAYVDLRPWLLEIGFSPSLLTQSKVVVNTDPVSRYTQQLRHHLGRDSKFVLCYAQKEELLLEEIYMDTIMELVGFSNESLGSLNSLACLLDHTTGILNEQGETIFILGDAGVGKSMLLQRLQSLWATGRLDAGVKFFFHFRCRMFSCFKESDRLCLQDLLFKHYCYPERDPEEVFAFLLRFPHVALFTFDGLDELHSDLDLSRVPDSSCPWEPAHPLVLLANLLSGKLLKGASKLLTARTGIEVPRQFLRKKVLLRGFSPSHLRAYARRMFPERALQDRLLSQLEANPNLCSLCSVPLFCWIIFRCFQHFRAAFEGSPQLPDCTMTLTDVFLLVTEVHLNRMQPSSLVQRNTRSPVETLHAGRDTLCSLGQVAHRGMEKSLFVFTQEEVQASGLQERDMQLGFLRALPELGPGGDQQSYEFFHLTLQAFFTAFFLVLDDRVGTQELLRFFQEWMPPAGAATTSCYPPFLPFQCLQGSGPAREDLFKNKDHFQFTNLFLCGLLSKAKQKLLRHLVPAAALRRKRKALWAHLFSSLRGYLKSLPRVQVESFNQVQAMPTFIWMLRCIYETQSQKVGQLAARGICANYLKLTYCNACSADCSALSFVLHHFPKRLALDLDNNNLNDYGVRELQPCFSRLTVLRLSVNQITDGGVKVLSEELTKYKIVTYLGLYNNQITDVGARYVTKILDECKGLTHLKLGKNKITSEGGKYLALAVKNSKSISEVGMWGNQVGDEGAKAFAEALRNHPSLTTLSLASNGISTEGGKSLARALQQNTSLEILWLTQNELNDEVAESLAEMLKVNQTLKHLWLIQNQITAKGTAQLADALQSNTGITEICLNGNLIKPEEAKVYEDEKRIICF
Experiment [7] concerns the target T3, Corticotropin-releasing factor receptor 2/Corticotropin-releasing factor-binding protein (Homo sapiens, UniProt P24387+Q13324).
T3 sequence (Q13324 whole entry): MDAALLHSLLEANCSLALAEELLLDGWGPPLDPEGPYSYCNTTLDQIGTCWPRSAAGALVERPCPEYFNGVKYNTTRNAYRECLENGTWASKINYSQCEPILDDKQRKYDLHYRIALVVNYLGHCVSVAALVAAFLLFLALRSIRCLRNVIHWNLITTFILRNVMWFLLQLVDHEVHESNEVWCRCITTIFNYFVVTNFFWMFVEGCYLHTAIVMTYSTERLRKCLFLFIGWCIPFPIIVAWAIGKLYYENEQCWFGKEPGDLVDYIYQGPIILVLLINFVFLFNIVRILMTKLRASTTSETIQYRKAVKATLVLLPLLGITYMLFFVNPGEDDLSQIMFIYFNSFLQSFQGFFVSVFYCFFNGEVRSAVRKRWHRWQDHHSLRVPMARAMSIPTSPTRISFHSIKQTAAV
T3 sequence (P24387 whole entry): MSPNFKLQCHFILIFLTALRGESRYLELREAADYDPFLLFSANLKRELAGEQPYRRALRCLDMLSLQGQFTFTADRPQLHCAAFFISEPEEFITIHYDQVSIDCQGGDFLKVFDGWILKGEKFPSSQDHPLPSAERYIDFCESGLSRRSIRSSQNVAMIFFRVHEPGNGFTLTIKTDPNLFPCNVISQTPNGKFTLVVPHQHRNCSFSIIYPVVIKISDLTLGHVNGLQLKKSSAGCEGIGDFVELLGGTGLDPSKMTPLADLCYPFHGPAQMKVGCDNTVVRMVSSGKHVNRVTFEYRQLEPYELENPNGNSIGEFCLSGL
The experiment can be described thus: Dose Response confirmation of uHTS hits for small molecule antagonists of the CRF-binding protein and CRF-R2 receptor complex. Type of experiment: functional. The settings on record: read-out: IC50_Mean.

For experiment [8], the system named is HEK293. The experiment is described as follows: cells. Type of experiment: functional, cell-based. The settings on record: Homo sapiens.
In experiment [9] the test system is HEK293. The experiment is described as follows: cells. The settings on record: Homo sapiens.
For experiment [10], the system named is HEK293. The experiment can be described thus: cells. The following applies: Homo sapiens. Type of experiment: functional, cell-based. The source holds these as a separate data set.
Experiment [11] has as its target T3, Corticotropin-releasing factor receptor 2/Corticotropin-releasing factor-binding protein. The experiment is described as follows: activators of CRF receptor 2 with binding protein – uHTS hits, confirmation (AID 602473). Type of experiment: functional. The following applies: read-out: EC50_Mean.
Experiment [12] has as its system HEK293. The experiment can be described thus: inhibition of NOD1-driven NF-kB reporter – cell-based, luminescence, uHTS, primary screen (AID 1578). The following applies: Homo sapiens. Type of experiment: functional.
Experiment [13] can be described thus: blockers of CRF-binding protein–CRF-R2 complex – cell-based, uHTS hits, 384-well, dose response (AID 651639). Format: functional, Homo sapiens. The settings on record: read-out: IC50_Mean.
Experiment [14] concerns HEK293. The experiment is described as follows: cells. Type of experiment: functional, cell-based. The following applies: Homo sapiens. The source holds these as a separate data set.
Another experiment has as its target Tumor necrosis factor (Homo sapiens, UniProt P01375). The experiment is described as follows: analog potency on TNFa NF-kB signaling – cell-based, revised, SAR follow-up (AID 2337). Type of experiment: functional.
In experiment [15] the test system is HEK293. The experiment can be described thus: NOD2 signaling inhibitors in MDP-stimulated cells, cell-based, uHTS, luminescence (AID 2001). Format: functional. The settings on record: Homo sapiens.
Experiment [16] has as its target ADP-ribosylation factor GTPase-activating protein 1 (Rattus norvegicus, UniProt Q62848). The experiment is described as follows: Fluorescence polarization-based biochemical high throughput dose response screening assay to identify inhibitors of ADP-ribosylation factor GTPase activating protein 1 (ARFGAP1). Format: functional. For orientation: Polarisation of emitted light reports the rotation of a fluorescent probe.

Experiment [17] addresses Dual specificity tyrosine-phosphorylation-regulated kinase 1A (Rattus norvegicus, UniProt Q63470). Format: biochemical, Homo sapiens.
Experiment [18] is described as follows: Trypanosoma cruzi growth suppression in host cells – NIH3T3 host cells, beta-gal luminescence, confirmation (AID 2044).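 Note: intracellular parasites grown in NIH/3T3 mouse fibroblasts as host cells; luminescent beta-galactosidase reporter signal from transgenic T. cruzi replicating inside host cells; inhibitors lower the luminescence signal.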 Format: functional, cell-based.
Experiment [19] in a line: NIH3T3 cell viability loss – ATP luminescence, mouse fibroblasts, counter-screen, dose response (AID 2010).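 Note: cells exposed to compound for about 90 hours before reading.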 Type of experiment: functional, cell-based.
The target in experiment [20] is Dual specificity protein kinase CLK1 (Homo sapiens, UniProt P49759). The experiment can be described thus: inhibition of human CLK1 activity – biochemical, cherry-picked samples, selectivity assay for Dyrk1A inhibitor project, dose response (AID 588811).
Sequence of Dual specificity protein kinase CLK1 (P49759 whole entry): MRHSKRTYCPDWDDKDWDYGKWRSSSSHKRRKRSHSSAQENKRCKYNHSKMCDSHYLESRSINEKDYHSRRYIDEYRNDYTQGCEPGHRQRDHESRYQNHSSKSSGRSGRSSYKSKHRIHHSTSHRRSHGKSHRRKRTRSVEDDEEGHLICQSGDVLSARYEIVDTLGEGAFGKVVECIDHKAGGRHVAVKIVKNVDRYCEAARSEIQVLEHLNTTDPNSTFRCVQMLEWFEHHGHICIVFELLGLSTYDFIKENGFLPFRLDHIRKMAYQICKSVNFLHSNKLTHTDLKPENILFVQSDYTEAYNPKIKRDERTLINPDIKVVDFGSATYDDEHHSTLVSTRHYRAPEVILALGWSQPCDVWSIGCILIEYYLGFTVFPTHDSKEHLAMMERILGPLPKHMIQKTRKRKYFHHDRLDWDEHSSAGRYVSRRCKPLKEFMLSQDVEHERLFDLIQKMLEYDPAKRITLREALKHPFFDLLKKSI
The target in experiment [21] is FAD-linked sulfhydryl oxidase ALR (Homo sapiens, UniProt P55789). The experiment is described as follows: ALR-catalysed DTT oxidation blockers – biochemical, H2O2 detection, luminescence, cherry-pick, dose response (AID 493248).
Sequence of FAD-linked sulfhydryl oxidase ALR (P55789 whole entry): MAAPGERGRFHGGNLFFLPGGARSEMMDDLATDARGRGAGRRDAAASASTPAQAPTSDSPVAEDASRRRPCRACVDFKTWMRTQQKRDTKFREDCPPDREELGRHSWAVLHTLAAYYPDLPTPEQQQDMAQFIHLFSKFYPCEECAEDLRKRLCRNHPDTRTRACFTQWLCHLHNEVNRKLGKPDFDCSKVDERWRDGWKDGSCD
The target of experiment [22] is Delta-type opioid receptor (Homo sapiens, UniProt P41143). The experiment can be described thus: Counterscreen for agonists of heterodimerization of the mu 1 (OPRM1) and delta 1 (OPRD1) opioid receptors: Luminescence-based cell-based high throughput dose response assay to identify agonists of OPRD1 homodimerization. [Related pubchem assays (depositor defined):AID504326, AID504355, AID504692, AID504904, AID504905]. Type of experiment: functional. In general terms: A counterscreen serves to expose hits that act by an unwanted route or on another target.
Sequence of Delta-type opioid receptor (P41143 whole entry): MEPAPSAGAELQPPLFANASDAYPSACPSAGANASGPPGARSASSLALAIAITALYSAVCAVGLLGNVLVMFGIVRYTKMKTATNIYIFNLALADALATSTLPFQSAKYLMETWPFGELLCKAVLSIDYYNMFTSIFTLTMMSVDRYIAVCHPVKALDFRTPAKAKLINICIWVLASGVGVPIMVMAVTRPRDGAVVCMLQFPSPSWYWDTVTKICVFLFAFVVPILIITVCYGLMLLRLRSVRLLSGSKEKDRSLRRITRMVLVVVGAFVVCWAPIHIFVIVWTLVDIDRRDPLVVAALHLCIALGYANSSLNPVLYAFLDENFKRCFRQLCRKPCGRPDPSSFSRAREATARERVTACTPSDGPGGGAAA

Experiment [23] deals with T4, Short transient receptor potential channel 4 (Mus musculus, UniProt Q9QUQ5).
T4 sequence (Q9QUQ5 whole entry): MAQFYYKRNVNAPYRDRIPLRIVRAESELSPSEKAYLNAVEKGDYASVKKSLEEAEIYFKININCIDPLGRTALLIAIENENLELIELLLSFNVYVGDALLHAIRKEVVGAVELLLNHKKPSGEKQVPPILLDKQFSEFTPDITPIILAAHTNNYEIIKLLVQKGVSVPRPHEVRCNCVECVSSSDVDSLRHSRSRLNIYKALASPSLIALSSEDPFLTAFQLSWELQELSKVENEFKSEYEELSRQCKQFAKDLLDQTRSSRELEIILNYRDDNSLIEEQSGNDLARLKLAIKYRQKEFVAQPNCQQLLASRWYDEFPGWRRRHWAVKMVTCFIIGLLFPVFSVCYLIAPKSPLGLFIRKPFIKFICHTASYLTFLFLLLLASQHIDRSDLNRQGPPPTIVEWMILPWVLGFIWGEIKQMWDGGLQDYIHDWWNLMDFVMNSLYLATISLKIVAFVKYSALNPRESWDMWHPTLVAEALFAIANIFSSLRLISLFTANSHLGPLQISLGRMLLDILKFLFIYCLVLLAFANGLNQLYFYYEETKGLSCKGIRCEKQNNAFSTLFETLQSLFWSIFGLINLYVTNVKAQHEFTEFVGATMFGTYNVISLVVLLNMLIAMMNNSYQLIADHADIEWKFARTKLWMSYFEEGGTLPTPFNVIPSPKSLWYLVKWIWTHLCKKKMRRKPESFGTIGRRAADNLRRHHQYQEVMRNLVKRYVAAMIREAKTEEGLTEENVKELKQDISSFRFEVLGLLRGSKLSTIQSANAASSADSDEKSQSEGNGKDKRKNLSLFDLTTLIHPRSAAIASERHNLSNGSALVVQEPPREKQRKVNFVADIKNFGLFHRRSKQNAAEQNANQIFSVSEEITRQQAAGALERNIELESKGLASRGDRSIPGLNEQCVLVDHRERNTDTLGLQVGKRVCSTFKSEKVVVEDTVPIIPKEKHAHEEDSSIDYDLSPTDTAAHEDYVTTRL
The experiment can be described thus: block of DAMGO-driven TRPC4 calcium entry – cell-based, HEK293 TRPC4/mu-opioid, Fluo-4 calcium, dose response (AID 434942).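 Note: potency of inhibitors blocking the TRPC4 calcium response.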 Type of experiment: functional.

The next experiment deals with Mu-type opioid receptor (Homo sapiens, UniProt P35372). The experiment is described as follows: Counterscreen for agonists of heterodimerization of the mu 1 (OPRM1) and delta 1 (OPRD1) opioid receptors: Luminescence-based cell-based high throughput dose response assay to identify agonists of OPRM1 homodimerization. Type of experiment: functional.
Sequence of Mu-type opioid receptor (P35372 whole entry): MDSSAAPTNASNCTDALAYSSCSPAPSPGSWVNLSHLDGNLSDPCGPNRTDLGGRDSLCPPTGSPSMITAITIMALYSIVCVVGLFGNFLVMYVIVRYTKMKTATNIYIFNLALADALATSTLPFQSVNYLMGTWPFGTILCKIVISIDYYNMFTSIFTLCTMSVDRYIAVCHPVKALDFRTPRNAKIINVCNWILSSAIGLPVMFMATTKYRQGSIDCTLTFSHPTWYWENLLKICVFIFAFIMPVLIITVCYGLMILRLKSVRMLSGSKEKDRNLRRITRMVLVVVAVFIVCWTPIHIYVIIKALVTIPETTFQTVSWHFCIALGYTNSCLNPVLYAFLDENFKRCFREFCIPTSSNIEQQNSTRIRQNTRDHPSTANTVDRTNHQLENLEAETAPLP
Experiment [24] has as its target 5-hydroxytryptamine receptor 5A (Homo sapiens, UniProt P47898). The experiment is described as follows: Counterscreen for agonists of OPRM1-OPRD1 heterodimerization: luminescence-based cell-based high throughput dose response assay to identify agonists of 5-hydroxytryptamine (serotonin) 5A receptor (HTR5A). [Related pubchem assays (depositor defined):AID504326, AID504355, AID504692, AID504904, AID504905]. Type of experiment: functional.

Sequence of 5-hydroxytryptamine receptor 5A (P47898 whole entry): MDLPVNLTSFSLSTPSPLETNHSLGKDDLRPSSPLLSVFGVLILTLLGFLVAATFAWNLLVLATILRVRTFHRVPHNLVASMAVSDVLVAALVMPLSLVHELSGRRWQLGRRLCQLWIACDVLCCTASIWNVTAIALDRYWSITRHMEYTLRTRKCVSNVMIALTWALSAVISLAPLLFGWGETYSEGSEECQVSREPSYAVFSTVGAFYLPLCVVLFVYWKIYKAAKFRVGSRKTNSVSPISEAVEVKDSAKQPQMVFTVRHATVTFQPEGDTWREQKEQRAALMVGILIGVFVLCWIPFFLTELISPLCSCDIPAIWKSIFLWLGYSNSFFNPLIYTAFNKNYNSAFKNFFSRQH
Sequence of Intestinal-type alkaline phosphatase (Mus musculus, UniProt P24822) (P24822 whole entry): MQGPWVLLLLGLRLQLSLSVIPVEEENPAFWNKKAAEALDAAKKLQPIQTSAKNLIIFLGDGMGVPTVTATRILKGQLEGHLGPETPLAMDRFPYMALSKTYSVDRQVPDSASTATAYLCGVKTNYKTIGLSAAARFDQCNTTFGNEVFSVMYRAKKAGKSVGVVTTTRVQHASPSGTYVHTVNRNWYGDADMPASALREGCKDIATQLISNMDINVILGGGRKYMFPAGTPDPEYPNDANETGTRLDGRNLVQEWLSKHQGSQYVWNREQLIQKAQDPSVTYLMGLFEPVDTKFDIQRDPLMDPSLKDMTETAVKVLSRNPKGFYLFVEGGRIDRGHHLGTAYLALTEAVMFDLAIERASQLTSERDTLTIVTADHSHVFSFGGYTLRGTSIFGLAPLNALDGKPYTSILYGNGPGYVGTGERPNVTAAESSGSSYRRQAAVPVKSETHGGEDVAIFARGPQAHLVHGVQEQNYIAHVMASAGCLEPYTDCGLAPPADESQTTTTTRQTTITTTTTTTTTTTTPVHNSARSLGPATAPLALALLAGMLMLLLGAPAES

For `O=C(NNC(=S)NCc1ccco1)c1ccccc1Br`, the IC50 in experiment [1] is 53.9 µM (active). Further, the results for the EC50 in experiment [2], in experiment [3] and in experiment [4] were 12 µM (active), 9.62 µM (active) and 13.8 µM (active), respectively.
Consider `CC1CCN(S(=O)(=O)c2nnc(NC(=O)c3cccc(Cl)c3)s2)CC1`, for which the results for the EC50 (in [5]; in experiment [11]; in the experiment with HEK293 [12]) were 16.8 µM (active), > 53 µM (inactive) and 2.64 µM (active), respectively. Also, the IC50 was 5.14 µM (active) in experiment [6]; 14.6 µM (active) in experiment [7]; > 20 µM (inactive) in the experiment with HEK293 [8]; 17.2 µM (active) in the experiment on HEK293 [9]; > 20 µM (inactive) in the experiment with HEK293 [10]; > 20 µM (inactive) in [13]. Moreover, the results for the IC50 in the experiment with HEK293 [14], at Tumor necrosis factor and in the experiment on HEK293 [15] were 11.1 µM (active), 6.64 µM (active) and 9.2 µM (active), respectively.
In the case of `O=C(/C=C/c1ccccc1)Nc1nc(-c2ccncc2)cs1`, in experiment [16], the IC50 is 28.8 µM (inactive). In addition, the half-maximal activity concentration (AC50) in [17] was 0.103 µM (active). The EC50 was 0.843 µM (active) in [18] and 17.6 µM (active) in experiment [19].
Turning to `NC(=O)c1c(NC(=O)c2ccc(N3C(=O)CCC3=O)cc2)sc2c1CCCC2`, the AC50 in [20] is 0.853 µM (active); in experiment [17] it was 3.9 µM (active); in experiment [21], 0.165 µM (active).
With `O=C(OC1C2CCC1C1CN(CCc3ccccc3)CC12)c1ccccc1` (stereo not drawn), the EC50 is > 92.5 µM (inactive) in [22], 3.35 µM (active) in experiment [23], > 92.5 µM (inactive) at Mu-type opioid receptor and > 92.5 µM (inactive) in experiment [24].
For `Cc1nc(N2CCN(c3ccccn3)CC2)c2c(C)c(C(=O)N3CCN(c4ccc(F)cc4)CC3)sc2n1`, the EC50 in experiment [22] was > 92.4 µM (inactive); in experiment [23] it was 1.19 µM (active); in experiment [5], 5.26 µM (active); at Mu-type opioid receptor it was 10.8 µM (inactive); in [24], > 92.4 µM (inactive); in the experiment with HEK293 [12] it was 6.14 µM (active). Besides, the IC50 is 17.1 µM (active) in the experiment on HEK293 [8], > 20 µM (inactive) with HEK293 [10], 6.02 µM (active) with HEK293 [14] and 6.95 µM (active) with HEK293 [15].
`c1nc(NCC2CCCOC2)c2cc(-c3ccc4c(c3)OCO4)ccc2n1` (stereo not drawn): the AC50 in [20] is 0.0101 µM (active).
